# In patent US20220089646A1 (THE UNIVERSITY OF QUEENSLAND, priority 2019, published 2022):
# Entries after “also recorded” stand apart in the source; their conditions may differ. *1 amine or outer side, *2 acyl side, *3 side chain or, on linkers, in order; H or OH if unused. Where a SMILES comes first, the peptide text is derived from it. Bridges are numbered along the chain shown (N, C = ends). [ ]: non-standard residue; d: D form. Phe(4-NO2) = N[C@@H](Cc1ccc([N+](=O)[O-])cc1)C(=O)O; Phe(4-Cl) = N[C@@H](Cc1ccc(Cl)cc1)C(=O)O; NHCH2CMe2S = CC(C)(CN[*:1])S[*:2]; NMeR = CN[C@@H](CCCNC(=N)N)C(=O)O; X1 = CC(C)(CN[*:2])S[*:1]; Sar = CNCC(=O)O
# Legend:
# [1] = tested on: bovine pancreatic trypsin; experiment: bovine pancreatic trypsin 2.5 μg/mL in NH4HCO3 buffer, pH approx. 8-8.5; settings: 37° C., up to 120 min
# KOP = KOP (Homo sapiens, UniProt P41145); experiment: In vitro cAMP activity at KOP (Table 10); type: cell-based; settings: cAMP inhibition, four-parameter regression, normalised to U50488H
# Chain of KOP (P41145 whole entry): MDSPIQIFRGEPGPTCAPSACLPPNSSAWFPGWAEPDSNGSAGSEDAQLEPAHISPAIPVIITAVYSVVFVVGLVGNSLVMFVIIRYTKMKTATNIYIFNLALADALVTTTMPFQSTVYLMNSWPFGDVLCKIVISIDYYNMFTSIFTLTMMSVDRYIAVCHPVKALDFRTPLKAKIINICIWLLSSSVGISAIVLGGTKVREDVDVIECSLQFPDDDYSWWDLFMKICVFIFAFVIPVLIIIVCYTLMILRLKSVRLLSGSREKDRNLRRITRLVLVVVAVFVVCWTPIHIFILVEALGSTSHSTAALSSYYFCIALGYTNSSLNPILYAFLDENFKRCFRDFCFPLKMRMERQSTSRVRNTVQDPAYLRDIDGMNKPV
# Method: (§1) The CP series compounds were assayed as follows: The assay was performed using a 96 well ½ area plate. The different cAMP standard solutions (3 μL/well) were plated in duplicate. The different concentrations of drug (3 μL/well), and control solutions (3 μL/well) were plated in triplicate. Following this, the acceptor bead mixture (3 μL/well) was added to the respective sets—either cAMP standard curve or the treatment. This was covered and incubated on the orbital shaker for 60 minutes at 37° C. Then, the donor bead mixture (10 μL/well) was added to each well. This was incubated at room temperature overnight on the orbital shaker.
# (§2) For DP-11-06 the assay was carried out in the same way as for the CP compounds except it was incubated for 30 mins at 37° C.
# (§3) For the CP series compounds and DP-11-06, the Ensight® Multimode Plate Reader was used to quantify the fluorescence units of each plate. Before reading, each plate was centrifuged at 280 g for 30 seconds. Using GraphPad Prism7® Software, cAMP concentrations were determined by fit spline/LOWESS analysis. The cAMP standard curve was used for interpolation at this point. The cAMP concentrations were then normalized to the highest cAMP concentration recorded and analyzed by one-way ANOVA for multiple comparisons. The IC50 for each compound was then calculated using GraphPad Prism7® with non-linear regression analysis using four parameter curve fitting.
# (§4) The results shown in Table 10 utilized rat plasma. • Note that DP-7-11 and CP5 represent the same compound, and DP-7-12 and CP6 are the same compound. In this regard, a different regression analysis method was adopted on the above cAMP experiments. Particularly, a new non-linear regression (four-parameter) was adopted to better account for hill slope, thereby improving the regression fit.
# MOP = MOP (Homo sapiens, UniProt P35372); experiment: In vitro cAMP activity at MOP (Table 10); type: cell-based; settings: cAMP inhibition, four-parameter regression
# Chain of MOP (P35372 whole entry): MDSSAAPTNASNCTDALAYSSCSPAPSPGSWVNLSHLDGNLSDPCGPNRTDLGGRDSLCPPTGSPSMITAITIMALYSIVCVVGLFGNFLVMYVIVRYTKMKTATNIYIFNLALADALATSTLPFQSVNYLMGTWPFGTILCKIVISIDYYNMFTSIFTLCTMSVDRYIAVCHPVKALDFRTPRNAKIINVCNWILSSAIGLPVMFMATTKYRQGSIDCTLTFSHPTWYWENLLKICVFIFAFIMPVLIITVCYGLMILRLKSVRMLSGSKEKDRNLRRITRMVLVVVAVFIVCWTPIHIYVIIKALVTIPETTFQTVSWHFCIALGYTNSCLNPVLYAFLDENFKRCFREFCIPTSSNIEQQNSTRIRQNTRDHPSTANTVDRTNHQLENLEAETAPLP
# Method: as §1, §2, §3
# (§5) In this regard, a different regression analysis method was adopted on the above cAMP experiments. Particularly, a new non-linear regression (four-parameter) was adopted to better account for hill slope, thereby improving the regression fit.
# DOP = DOP (Homo sapiens, UniProt P41143); experiment: In vitro cAMP activity at DOP (Table 10); type: cell-based; settings: cAMP inhibition, four-parameter regression
# Chain of DOP (P41143 whole entry): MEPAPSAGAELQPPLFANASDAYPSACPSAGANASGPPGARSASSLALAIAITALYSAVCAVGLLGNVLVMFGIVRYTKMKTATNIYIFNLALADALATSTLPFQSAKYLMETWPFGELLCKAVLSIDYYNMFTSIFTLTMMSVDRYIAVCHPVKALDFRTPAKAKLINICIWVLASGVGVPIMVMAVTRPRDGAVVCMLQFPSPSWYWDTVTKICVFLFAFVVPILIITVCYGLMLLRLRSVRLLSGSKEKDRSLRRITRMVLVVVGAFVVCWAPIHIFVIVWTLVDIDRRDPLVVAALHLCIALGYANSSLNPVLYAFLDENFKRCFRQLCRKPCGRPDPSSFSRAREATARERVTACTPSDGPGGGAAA
# Method: as §1, §2, §3, §5
# [2] = biological target: T1, bovine pancreatic trypsin (Bos taurus, UniProt P00760); experiment: Trypsin stability assay (Table 10); type: in vitro ADME; settings: for half-life / half-life at 100 uM: bovine pancreatic trypsin 2.5 μg/mL, 37° C., One Phase Decay, read-out: Stability (t1/2, mins) Trypsin; for half-life at 100 uM: bovine pancreatic trypsin solution; for Degradation in trypsin: over the 120 minute assay
# T1 construct: from tissue; host or cells: bovine pancreas
# T1 sequence (P00760 24-246): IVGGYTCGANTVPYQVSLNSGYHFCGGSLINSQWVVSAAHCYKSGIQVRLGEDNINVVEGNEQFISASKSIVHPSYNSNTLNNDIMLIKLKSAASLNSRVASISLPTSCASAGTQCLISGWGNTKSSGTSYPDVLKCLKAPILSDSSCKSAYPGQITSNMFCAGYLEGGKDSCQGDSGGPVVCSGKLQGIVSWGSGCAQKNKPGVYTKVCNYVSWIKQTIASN
# Text: (§6) FIG. 20 is a series of graphs showing the stability of selected peptides in a trypsin (left-hand graphs) and plasma (right-hand graphs) stability assay (data normalised to concentration of each peptide at t=0, determined by LCMS, within each substrate; data analysed using One Phase Decay nonlinear regression in Prism software and each experiment performed in triplicate; mean+/−SEM);
# Plasma was collected in house from adult mixed-gender Wistar rats, prepared using 2% EDTA as per standard practice. Peptides were added to rat plasma samples at 37° C. (in a water bath) with final concentrations of 100 uM (1:9 peptide in water:plasma) and a 50 μL sample was immediately taken and precipitated in 150 μL cold acetonitrile (9:1 ACN:water). This sample became the baseline, or t=0 min sample. […] At each time point, the 50 μL of plasma collected was immediately added to cold ACN. Each collected plasma sample in ACN was directly vortexed for 30 seconds and then centrifuged at room temperature (13K rpm, 5 min). 150 μL of the supernatant was taken and directly placed in glass HPLC vials for LCMS analysis.
# The protocol for the trypsin stability assay was very similar to the plasma stability assay discussed above. The only difference was the use of a trypsin solution (bovine pancreatic trypsin 2.5 μg/mL in NH4HCO3 buffer, pH approx. 8-8.5, 37° C.) instead of rat plasma. Volumes, times and preparation protocols were exactly as mentioned above.
# [3] = Plasma stability assay (Table 10); type: in vitro ADME; settings: 37° C., 100 uM peptide, One Phase Decay, read-out: Stability (t1/2, mins) Plasma; for half-life: rat plasma; for half-life at 100 uM: both sexes, Wistar, rat plasma (EDTA)
# Text: as §6, §4
# Plasma was collected in house from adult mixed-gender Wistar rats, prepared using 2% EDTA as per standard practice. Peptides were added to rat plasma samples at 37° C. (in a water bath) with final concentrations of 100 uM (1:9 peptide in water:plasma) and a 50 μL sample was immediately taken and precipitated in 150 μL cold acetonitrile (9:1 ACN:water). This sample became the baseline, or t=0 min sample. Plasma with peptide was immediately returned to the water bath and subsequent 50 μL samples were taken at 5, 10, 15, 30, 60 and 120 min. At each time point, the 50 μL of plasma collected was immediately added to cold ACN. Each collected plasma sample in ACN was directly vortexed for 30 seconds and then centrifuged at room temperature (13K rpm, 5 min). 150 μL of the supernatant was taken and directly placed in glass HPLC vials for LCMS analysis.
# Stability in cAMP buffer = type: physicochemical; settings: over 60 minutes
# Text: Select compounds were also screened for stability in cAMP buffer, to assess whether they degrade spontaneously in the cell assay environment, in the absence of cellular metabolic processes.
# trypsin = experiment: stock trypsin solution (1 mg trypsin in 50 mL of 0.1 M NH4HCO3 buffer); settings: 37° C., up to 24 hours
compound,measurement,setting,value
c(Tyr-Sar-(p-NO2-Phe)-Leu-Arg-NMA-D(Asp)-D(Arg)-SSa-D(Lys)),not cleaved,[1],no sign of degradation over the 120 minute assay
"CC(C)C[C@H](NC(=O)[C@H](Cc1ccc(Cl)cc1)NC(=O)CN(C)C(=O)[C@@H](N)Cc1ccc(O)cc1)C(=O)N[C@@H](CCCNC(=N)N)C(=O)N[C@H](CCCNC(=N)N)C(=O)N[C@H]1CSSC(C)(C)CNC(=O)C[C@@H](C(N)=O)NC1=O [CP9, c(Tyr-Sar-(p-Cl-Phe)-Leu-Arg-D(Arg)-SSa-Asp)] (H-Y[Sar][Phe(4-Cl)]LR[dR]CD-NH2; linker 7-8 via X1)",EC50,KOP,1.8 nM
same,EC50,MOP,> 10000 nM
same,EC50,DOP,> 10000 nM
same,half-life,[2],49.8 min
same,half-life,[3],85.5 min
same,Degradation in cAMP assay buffer,Stability in cAMP buffer,no degradation
c(Tyr-Sar(p-NO2-Phe)-Leu-Arg-D(Arg)-SSa-Arg-D(Asp)-Lys,not cleaved,[1],no sign of degradation over the 120 minute assay
"CC(C)C[C@H](NC(=O)[C@H](Cc1ccc([N+](=O)[O-])cc1)NC(=O)CN(C)C(=O)[C@@H](N)Cc1ccc(O)cc1)C(=O)N[C@@H](CCCNC(=N)N)C(=O)N[C@H](CCCNC(=N)N)C(=O)N[C@@H]1CSSC(C)(C)CNC(=O)C[C@H](C(=O)N[C@@H](CCCCN)C(N)=O)NC(=O)[C@H](CCCNC(=N)N)NC1=O [CP13, c(Tyr-Sar(p-NO2-Phe)-Leu-Arg-D(Arg)-SSa-Arg-D(Asp)-Lys] (H-Y[Sar][Phe(4-NO2)]LR[dR][dC]R[dD]K-NH2; linker 7-9 via X1)",EC50,KOP,16 nM
same,EC50,MOP,> 10000 nM
same,half-life at 100 uM,[2],1410 min
same,Degradation in trypsin,[2],no sign of degradation
same,half-life at 100 uM,[3],63.3 min
same,Degradation in cAMP assay buffer,Stability in cAMP buffer,no degradation
Tyr-Gly-Gly-Phe-Leu-Arg-Arg,fragment found,trypsin,"DYN A (1-6), 15 min"
Tyr-Gly-Gly-Phe-Leu-Arg-Arg-Ile-Arg-Pro-Lys,fragment found,trypsin,"DYN A (1-7), first_seen, initial time point samples; also recorded: DYN A (1-6), first_seen, initial time point samples"
same,not cleaved,trypsin,DYN 1-9 was not observed upon trypsin digestion
c(Tyr-Gly-Gly-Phe-D(Asp)-Arg-SSa-Ile-Arg-Pro-Lys),not cleaved,trypsin,Stable up to 6 h; more than 90% remained after 360 minutes
"CC1(C)CNC(=O)C[C@@H](C(=O)N[C@@H](CCCNC(=N)N)C(=O)N[C@@H](CCCNC(=N)N)C(N)=O)NC(=O)[C@H](Cc2ccccc2)NC(=O)CNC(=O)C(NC(=O)[C@@H](N)Cc2ccc(O)cc2)CSS1 (stereo partly drawn) [CP1, c(Tyr-SSa-Gly-Phe-L-Asp-Arg-Arg)]",EC50,KOP,1270 nM
same,EC50,MOP,4530 nM
same,EC50,DOP,> 10000 nM
same,half-life,[2],< 0.01 min
same,half-life,[3],< 0.01 min
"CC(C)C[C@H](NC(=O)[C@H](Cc1ccc([N+](=O)[O-])cc1)NC(=O)CN(C)C(=O)[C@@H](N)Cc1ccc(O)cc1)C(=O)N[C@@H](CCCNC(=N)N)C(=O)N(C)[C@@H](CCCNC(=N)N)C(=O)N[C@@H]1CC(=O)NCC(C)(C)SSC[C@H](C(=O)N[C@H](CCCCN)C(N)=O)NC(=O)[C@@H](CCCNC(=N)N)NC1=O [CP14, c(Tyr-Sar-(p-NO2-Phe)-Leu-Arg-NMA-D(Asp)-D(Arg)-SSa-D(Lys))] (H-Y[Sar][Phe(4-NO2)]LR[NMeR][dD][dR][dC][dK]-NH2; linker 7-9 via NHCH2CMe2S)",EC50,KOP,4.4 nM
same,EC50,MOP,> 10000 nM
same,half-life at 100 uM,[2],2320 min
same,Degradation in trypsin,[2],no sign of degradation
same,half-life at 100 uM,[3],70.8 min
same,Degradation in cAMP assay buffer,Stability in cAMP buffer,no degradation
